From patent EP4617278A1, “NUCLEOTIDE ANALOG, AND COMPOSITION AND USE THEREOF” (priority 2022, dated 2024) come the findings set out here.

This test concerns SARS-CoV-2 replicon. It is filed as cell-based. As to conditions: read-out: SARS-CoV-2 Replicon (Huh-7cell) EC50. Background: A replicon is a self-replicating genome or part of one, used to study replication in cells.

By EC50 is commonly meant the concentration at which the effect is half-maximal. With `CCC(CC)COC(=O)[C@H](C)N[P@@](=O)(OCc1ccccc1C)OC[C@H]1O[C@@](C#N)(c2ccc3c(N)ncnn23)[C@H](OC(=O)C(C)C)[C@@H]1OC(=O)C(C)C` [Compound 16b, (2R,3R,4R,5R)-2-(4-aminopyrrolo[2,1-f][1,2,4]triazin-7-yl)-2-cyano-5-((((R)-(((S)-1-(2-ethylbutoxy)-1-oxopropan-2-yl)amino)((2-methylbenzyl)oxy)phosphoryl)oxy)methyl)tetrahydrofuran-3,4-diyl bis(2-methylpropionate)], the EC50 lay within 50 to 500 nM.

Consider `CCC(CC)COC(=O)C1(N[P@@](=O)(OCOC(=O)OC(C)C)OC[C@H]2O[C@@](C#N)(c3ccc4c(N)ncnn34)[C@H](OC(=O)C(C)C)[C@@H]2OC(=O)C(C)C)CCC1` [Compound 32b, (2R,3R,4R,5R)-2-(4-aminopyrrolo[2,1-f][1,2,4]triazin-7-yl)-2-cyano-5-((((S)-((1-((2-ethylbutoxy)carbonyl)cyclobutyl)amino)(((isopropoxycarbonyl)oxy)methoxy)phosphoryl)oxy)methyl)tetrahydrofuran-3,4-diyl bis(2-methylpropionate)], for which the EC50 is 10 to 50 nM.

Consider `CCC(CC)COC(=O)[C@H](C)N[P@@](=O)(OCOC(=O)C(C)(C)C)OC[C@H]1O[C@@](C#N)(c2ccc3c(N)ncnn23)[C@H](OC(=O)C(C)C)[C@@H]1OC(=O)C(C)C` [Compound 11b, (2R,3R,4R,5R)-2-(4-aminopyrrolo[2,1-f][1,2,4]triazin-7-yl)-2-cyano-5-((((S)-(((S)-1-(2-ethylbutoxy)-1-oxopropan-2-yl)amino)((pivaloyloxy)methoxy)phosphoryl)oxy)methyl)tetrahydrofuran-3,4-diyl bis(2-methylpropionate)], for which the EC50 was less than 5 nM.

As to `CCC(CC)COC(=O)[C@H](Cc1ccccc1)N[P@](=O)(OCOC(=O)OC(C)C)OC[C@H]1O[C@@](C#N)(c2ccc3c(N)ncnn23)[C@H](OC(=O)C(C)C)[C@@H]1OC(=O)C(C)C` [Compound 31a, (2R,3R,4R,5R)-2-(4-aminopyrrolo[2,1-f][1,2,4]triazin-7-yl)-2-cyano-5-((((R)-(((S)-1-(2-ethylbutoxy)-1-oxo-3-phenylpropan-2-yl)amino)(((isopropoxycarbonyl)oxy)methoxy)phosphoryl)oxy)methyl)tetrahydrofuran-3,4-diyl bis(2-methylpropionate)], the concentration giving a half-maximal response (EC50) lay within 10 to 50 nM.

Take `CC(C)C(=O)O[C@H]1[C@@H](OC(=O)C(C)C)[C@](C#N)(c2ccc3c(N)ncnn23)O[C@@H]1CO[P@](=O)(OCOC(=O)C(C)(C)C)Oc1ccc(C(C)(C)C)cc1` [Compound 44a, (2R,3R,4R,5R)-2-(4-aminopyrrolo[2,1-f][1,2,4]triazin-7-yl)-5-(((((S)-4-tert-butylphenoxy)(((tert-butylcarbonyl)oxy)methoxy)phosphoryl)oxy)methyl)-2-cyanotetrahydrofuran-3,4-diyl bis(2-methylpropionate)]: the half-maximal effective concentration (EC50) was 5 to 10 nM.

With “(2R,3R,4R,5R)-2-(4-aminopyrrolo[2,1-f][1,2,4]triazin-7-yl)-2-cyano-5-((((R)-(((S)-1-(2-ethylbutoxy)-1-oxopropan-2-yl)amino)(((isopropoxycarbonyl)oxy)methoxy)phosphoryl)oxy)methyl)tetrahydrofuran-3,4-diyl diacetate [Compound 5a]”, the concentration giving a half-maximal response (EC50) fell in the range of 50 to 500 nM.

Consider `CCCCCCCCCCCCOC(=O)[C@H](C)N[P@@](=O)(OC[C@H]1O[C@@](C#N)(c2ccc3c(N)ncnn23)[C@H](OC(=O)C(C)C)[C@@H]1OC(=O)C(C)C)Oc1ccccc1` [Compound 46a], for which the half-maximal effective concentration (EC50) was in the range of 50 to 500 nM.

Consider `CCC(CC)COC(=O)[C@H](C)N[P@@](=O)(OCOC(=O)OC(C)C)OC[C@H]1O[C@@](C#N)(c2ccc3c(N)ncnn23)[C@H](OC(=O)C(C)C)[C@@H]1OC(=O)C(C)C` [Compound 7b, (2R,3R,4R,5R)-2-(4-aminopyrrolo[2,1-f][1,2,4]triazin-7-yl)-2-cyano-5-((((S)-(((S)-1-(2-ethylbutoxy)-1-oxopropan-2-yl)amino)(((isopropoxycarbonyl)oxy)methoxy)phosphoryl)oxy)methyl)tetrahydrofuran-3,4-diyl bis(2-methylpropionate)], for which the concentration for a half-maximal effect (EC50) lay in the range of 10 to 50 nM.

With `CCC(CC)COC(=O)[C@H](Cc1ccccc1)N[P@](=O)(OC[C@H]1O[C@@](C#N)(c2ccc3c(N)ncnn23)[C@H](OC(=O)C(C)C)[C@@H]1OC(=O)C(C)C)Oc1ccccc1` [Compound 41b, (2R,3R,4R,5R)-2-(4-aminopyrrolo[2,1-f][1,2,4]triazin-7-yl)-2-cyano-5-((((S)-(((S)-1-(2-ethylbutoxy)-1-oxo-3-phenylpropan-2-yl)amino)(phenoxy)phosphoryl)oxy)methyl)tetrahydrofuran-3,4-diyl bis(2-methylpropionate)], the EC50 is 5 to 10 nM.

Turning to `CCC(CC)COC(=O)[C@H](C)N[P@](=O)(OCOC(=O)OC(C)C)OC[C@H]1O[C@@](C#N)(c2ccc3c(N)ncnn23)[C@H](OC(=O)C(C)C)[C@@H]1OC(=O)C(C)C` [Compound 7a, (2R,3R,4R,5R)-2-(4-aminopyrrolo[2,1-f][1,2,4]triazin-7-yl)-2-cyano-5-((((R)-(((S)-1-(2-ethylbutoxy)-1-oxopropan-2-yl)amino)(((isopropoxycarbonyl)oxy)methoxy)phosphoryl)oxy)methyl)tetrahydrofuran-3,4-diyl bis(2-methylpropionate)], the EC50 fell in the range of 10 to 50 nM.

Take `CC(C)OC(=O)OCOP(=O)(OCOC(=O)OC(C)C)OC[C@H]1O[C@@](C#N)(c2ccc3c(N)ncnn23)[C@H](OC(=O)C(C)C)[C@@H]1OC(=O)C(C)C` [Compound 19, (2R,3R,4R,5R)-2-(4-aminopyrrolo[2,1-f][1,2,4]triazin-7-yl)-5-((((bis(((isopropoxycarbonyl)oxy)methoxy))phosphoryl)oxy)methyl)-2-cyanotetrahydrofuran-3,4-diyl bis(2-methylpropionate)]: the half-maximal effective concentration (EC50) is less than 5 nM.

For `CC(C)OC(=O)OCO[P@@](=O)(N[C@@H](C)C(=O)OC(C)C)OC[C@H]1O[C@@](C#N)(c2ccc3c(N)ncnn23)[C@H](OC(=O)C(C)(C)C)[C@@H]1OC(=O)C(C)(C)C` [Compound 4a, (2R,3R,4R,5R)-2-(4-aminopyrrolo[2,1-f][1,2,4]triazin-7-yl)-2-cyano-5-((((R)-(((S)-1-isopropoxy-1-oxopropan-2-yl)amino)(((isopropoxycarbonyl)oxy)methoxy)phosphoryl)oxy)methyl)tetrahydrofuran-3,4-diyl bis(2,2-dimethylpropionate)], the concentration for a half-maximal effect (EC50) lay in the range of 50 to 500 nM.

With `CCC(CC)COC(=O)C1(N[P@@](=O)(OC[C@H]2O[C@@](C#N)(c3ccc4c(N)ncnn34)[C@H](OC(=O)C(C)C)[C@@H]2OC(=O)C(C)C)Oc2ccccc2)CCC1` [Compound 40a, (2R,3R,4R,5R)-2-(4-aminopyrrolo[2,1-f][1,2,4]triazin-7-yl)-2-cyano-5-((((R)-((1-((2-ethylbutoxy)carbonyl)cyclobutyl)amino)(phenoxy)phosphoryl)oxy)methyl)tetrahydrofura n-3,4-diyl bis(2-methylpropionate)], the EC50 fell in the range of 10 to 50 nM.

On to `CC(C)OC(=O)OCOP(=O)(OCOC(=O)OC(C)C)OC[C@H]1O[C@@](C#N)(c2c(Br)cc3c(N)ncnn23)[C@H](OC(=O)C(C)C)[C@@H]1OC(=O)C(C)C` [Compound 65, (2R,3R,4R,5R)-2-(4-amino-6-bromopyrrolo[2,1-f][1,2,4]triazin-7-yl)-5-(((bis(((isopropoxycarbonyl)oxy)methoxy)phosphoryl)oxy)methyl)-2-cyanotetrahydrofuran-3,4-diyl bis(2-methylpropionate)], for which the EC50 was in the range of 50 to 500 nM.

For the molecule `CC(=O)O[C@H]1[C@@H](OC(C)=O)[C@](C#N)(c2ccc3c(N)ncnn23)O[C@@H]1CO[P@](=O)(OCOC(=O)OC(C)C)Oc1ccc(C(C)(C)C)cc1` [Compound 22a, (2R,3R,4R,5R)-2-(4-aminopyrrolo[2,1-f][1,2,4]triazin-7-yl)-5-((((S)-(4-tert-butylphenoxy)(((isopropoxycarbonyl)oxy)methoxy)phosphoryl)oxy)methyl)-2-cyanotetrahydrofuran-3,4-diyl diacetate], the EC50 was less than 5 nM.

Regarding `CC(C)OC(=O)OCO[P@](=O)(N[C@@H](C)C(=O)OC1CCC1)OC[C@H]1O[C@@](C#N)(c2ccc3c(N)ncnn23)[C@H](OC(=O)C(C)C)[C@@H]1OC(=O)C(C)C` [Compound 13b, (2R,3R,4R,5R)-2-(4-aminopyrrolo[2,1-f][1,2,4]triazin-7-yl)-2-cyano-5-((((S)-(((S)-1-cyclobutoxy-1-oxopropan-2-yl)amino)(((isopropoxycarbonyl)oxy)methoxy)phosphoryl)oxy)methyl)tetrahydrofuran-3,4-diyl bis(2-methylpropionate)], the EC50 was less than 5 nM.

On to `CC(C)C(=O)O[C@H]1[C@@H](OC(=O)C(C)C)[C@](C#N)(c2ccc3c(N)ncnn23)O[C@@H]1CO[P@@](=O)(N[C@@H](CC(=O)OC1CCC1)C(=O)OC1CCC1)Oc1ccccc1` [Compound 54b, (2R,3R,4R,5R)-2-(4-aminopyrrolo[2,1-f][1,2,4]triazin-7-yl)-2-cyano-5-((((S)-(((S)-1,4-dicyclobutoxy-1,4-dioxobutan-2-yl)amino)(phenoxy)phosphoryl)oxy)methyl)tetrahydrofuran-3,4-diyl bis(2-methylpropionate)], for which the EC50 was less than 5 nM.

In the case of `CCC(CC)COC(=O)[C@H](C)N[P@](=O)(OCc1ccccc1C)OC[C@H]1O[C@@](C#N)(c2ccc3c(N)ncnn23)[C@H](OC(=O)C(C)C)[C@@H]1OC(=O)C(C)C` [Compound 16a, (2R,3R,4R,5R)-2-(4-aminopyrrolo[2,1-f][1,2,4]triazin-7-yl)-2-cyano-5-((((S)-(((S)-1-(2-ethylbutoxy)-1-oxopropan-2-yl)amino)((2-methylbenzyl)oxy)phosphoryl)oxy)methyl)tetrahydrofuran-3,4-diyl bis(2-methylpropionate)], the concentration giving a half-maximal response (EC50) was 50 to 500 nM.

As for `COC(C)(C)COC(=O)[C@H](Cc1ccccc1)N[P@@](=O)(OC[C@H]1O[C@@](C#N)(c2ccc3c(N)ncnn23)[C@H](OC(=O)C(C)C)[C@@H]1OC(=O)C(C)C)Oc1ccccc1` [Compound 64a, (2R,3R,4R,5R)-2-(4-aminopyrrolo[2,1-f][1,2,4]triazin-7-yl)-2-cyano-5-((((R)-(((S)-1-(2-methoxy-2-methylpropoxy)-1-oxo-3-phenylpropan-2-yl)amino)(phenoxy)phosphoryl)oxy)methyl)tetrahydrofuran-3,4-diyl bis(2-methylpropionate)], the concentration for a half-maximal effect (EC50) was less than 5 nM.
